Measurements from patent publication US20110021530A1, “PYRIDAZINE DERIVATIVES AND THEIR USE AS THERAPEUTIC AGENTS IN THE TREATMENT OF SKIN DISORDERS” (XENON PHARMACEUTICALS INC., priority 2008, published 2011).

Key:
HEPG2 = HEPG2 IC50; format: cell-based; settings: Homo sapiens
[1] = biological target: T1, stearoyl-CoA desaturase (SCD) (Mus musculus, UniProt P13516); assay: HTS microsomal assay of stearoyl-CoA desaturase inhibition using mouse liver microsomes; format: biochemical; settings: % SCD enzyme activity remaining at 10 μM test compound
T1 construct: Reactions are started by adding 2 mg of microsomal protein; from tissue; host or cells: liver microsomes of male ICR mice on a high-carbohydrate, low fat diet
T1 sequence (P13516 1-355): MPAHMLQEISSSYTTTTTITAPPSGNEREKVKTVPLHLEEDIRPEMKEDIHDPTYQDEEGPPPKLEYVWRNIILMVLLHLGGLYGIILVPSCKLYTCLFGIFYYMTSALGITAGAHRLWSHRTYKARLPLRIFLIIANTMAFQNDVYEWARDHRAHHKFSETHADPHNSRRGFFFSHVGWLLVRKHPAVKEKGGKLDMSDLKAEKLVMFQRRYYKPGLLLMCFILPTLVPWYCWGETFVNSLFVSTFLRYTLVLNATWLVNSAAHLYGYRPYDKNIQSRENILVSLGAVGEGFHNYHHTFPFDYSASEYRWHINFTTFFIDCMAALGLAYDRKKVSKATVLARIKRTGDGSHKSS
Description: The absence of mitochondrial contamination is enzymatically assessed.
The compounds are analyzed with an HTS microsomal assay.

SCD = biological target: T2, SCD (Mus musculus, UniProt P13516); assay: Mouse SCD IC50 determination for compounds active in the HTS assay; format: biochemical
T2 sequence (P13516 1-355): T1 sequence (P13516 1-355)
Description: The compounds are analyzed with an HTS microsomal assay. The activities are defined in terms of % SCD enzyme activity remaining at the selected concentration (e.g., 10 μM) of the test compounds.

Compound | IC50 (HEPG2) [nM] | Mouse microsome SCD activity % remaining @ 10 μM [1] [%] | IC50 (SCD) [nM]
CC(C)CCNC(=O)c1ccc(N2CCN(C(=O)OC(C)(C)C)CC2)nn1 [4-[6-(3-METHYLBUTYLCARBAMOYL)PYRIDAZIN-3-YL]PIPERAZINE-1-CARBOXYLIC ACID T-BUTYL ESTER] | 1450 | 11 | –
CCCCCNC(=O)Nc1ccc(N2CCN(C(=O)c3ccccc3C(F)(F)F)CC2)nn1 [1-PENTYL-3-{6-[4-(2-TRIFLUOROMETHYLBENZOYL)PIPERAZIN-1-YL]PYRIDAZIN-3-YL}UREA] | 40 | 6 | 10
COc1ccc(CCNC(=O)c2ccc(N3CCN(C(=O)c4ccccc4C(F)(F)F)CC3)nn2)cc1 [6-[4-(2-TRIFLUOROMETHYLBENZOYL)PIPERAZIN-1-YL]PYRIDAZINE-3-CARBOXYLIC ACID [2-(4-METOXYPHENYL)ETHYL]AMIDE] | 80 | 7 | 1630
O=C(NCCC1CC1)c1ccc(N2CCN(C(=O)c3cc(C(F)(F)F)ccc3C(F)(F)F)CC2)nn1 [6-[4-(2,5-BIS-TRIFLUOROMETHYLBENZOYL)PIPERAZIN-1-YL]PYRIDAZINE-3-CARBOXYLIC ACID (2-CYCLOPROPYLETHYL)AMIDE] | 70 | 6 | 150
O=C(NCc1ccc(F)cc1)Nc1ccc(N2CCN(C(=O)c3ccccc3C(F)(F)F)CC2)nn1 [1-(4-FLUOROBENZYL)-3-{6-[4-(2-TRIFLUOROMETHYLBENZOYL)PIPERAZIN-1-YL]-PYRIDAZIN-3-YL}UREA] | 30 | 6 | 70
O=C(NCc1ccccc1)Nc1ccc(N2CCN(C(=O)c3ccccc3C(F)(F)F)CC2)nn1 [1-BENZYL-3-{6-[4-(2-TRIFLUOROMETHYLBENZOYL)PIPERAZIN-1-YL]PYRIDAZIN-3-YL}UREA] | 50 | 8 | 40
O=C(NCCCc1ccc(F)cc1)Nc1ccc(N2CCN(C(=O)c3ccccc3C(F)(F)F)CC2)nn1 [1-[3-(4-Fluorophenyl)propyl]-3-{6-[4-(2-trifluoromethylbenzoyl)piperazin-1-yl]pyridazin-3-yl}urea] | 350 | 14 | 1370
CC(C)CCNC(=O)c1ccc(N2CCN(C(=O)c3ccccc3N)CC2)nn1 [6-[4-(2-AMINOBENZOYL)PIPERAZIN-1-YL]PYRIDAZINE-3-CARBOXYLIC ACID (3-METHYLBUTYL)AMIDE] | 640 | 23 | 450
O=C(NCCC1CC1)c1ccc(N2CCN(Cc3ccc(Cl)cc3Cl)CC2)nn1 [6-[4-(2,4-DICHLOROBENZYL)-PIPERAZIN-1-YL]PYRIDAZINE-3-CARBOXYLIC ACID (2-CYCLOPROPYLETHYL)AMIDE] | 210 | 8 | 230
CC(C)CCNC(=O)c1ccc(N2CCN(C(=O)c3ccccc3[N+](=O)[O-])CC2)nn1 [6-[4-(2-NITROBENZOYL)PIPERAZIN-1-YL]PYRIDAZINE-3-CARBOXYLIC ACID (3-METHYLBUTYL)AMIDE] | 120 | 8 | 80
CC(C)CCNC(=O)c1ccc(N2CCN(C(=O)c3nnn(Cc4ccccc4)c3C(F)(F)F)CC2)nn1 [6-[4-(1-BENZYL-5-TRIFLUOROMETHYL-1H-[1,2,3]TRIAZOLE-4-CARBONYL)-PIPERAZIN-1-YL]PYRIDAZINE-3-CARBOXYLIC ACID (3-METHYLBUTYL)AMIDE] | – | 61 | –
O=C(NCCC1CC1)c1ccc(N2CCN(C(=O)C3(O)CC3)CC2)nn1 [6-[4-(1-HYDROXYCYCLOPROPANECARBONYL)PIPERAZIN-1-YL]PYRIDAZINE-3-CARBOXYLIC ACID (2-CYCLOPROPYLETHYL)AMIDE] | – | 73 | –
CC(NC(=O)Nc1ccc(N2CCN(C(=O)c3ccccc3C(F)(F)F)CC2)nn1)c1ccc(F)cc1 (stereo not drawn) [1-[1-(4-Fluorophenyl)ethyl]-3-{6-[4-(2-trifluoromethylbenzoyl)piperazin-1-yl]pyridazin-3-yl}urea] | – | 45 | –

Now from value to compound:

IC50 (HEPG2) [nM] | Mouse microsome SCD activity % remaining @ 10 μM [1] [%] | IC50 (SCD) [nM] | Compound
290 | 7 | 260 | O=C(NCCC1CC1)c1ccc(N2CCN(C(=O)c3ccoc3C(F)(F)F)CC2)nn1 [6-[4-(2-TRIFLUOROMETHYLFURAN-3-CARBONYL)PIPERAZIN-1-YL]PYRIDAZINE-3-CARBOXYLIC ACID (2-CYCLOPROPYLETHYL)AMIDE]
540 | 9 | 340 | CC(=CC(=O)N1CCN(c2ccc(C(=O)NCCC(C)C)nn2)CC1)C(F)(F)F [6-[4-(4,4,4-TRIFLUORO-3-METHYLBUT-2-ENOYL)PIPERAZIN-1-YL]PYRIDAZINE-3-CARBOXYLIC ACID (3-METHYLBUTYL)AMIDE]
– | 10 | 590 | O=C(NCCC1CC1)c1ccc(N2CCN(C(=O)Cc3ccccc3C(F)(F)F)CC2)nn1 [6-{4-[2-(2-TRIFLUOROMETHYLPHENYL)ACETYL]PIPERAZIN-1-YL}PYRIDAZINE-3-CARBOXYLIC ACID (2-CYCLOPROPYLETHYL)AMIDE]
40 | 7 | 60 | O=C(NCCC1CC1)c1ccc(N2CCN(Cc3cc(Cl)ccc3C(F)(F)F)CC2)nn1 [6-[4-(5-CHLORO-2-TRIFLUOROMETHYLBENZYL)PIPERAZIN-1-YL]PYRIDAZINE-3-CARBOXYLIC ACID (2-CYCLOPROPYLETHYL)AMIDE]
120 | 8 | 110 | CC(C(=O)N1CCN(c2ccc(C(=O)NCCC3CC3)nn2)CC1)(C(F)(F)F)C(F)(F)F [6-[4-(3,3,3-TRIFLUORO-2-METHYL-2-TRIFLUOROMETHYLPROPIONYL)PIPERAZIN-1-YL]PYRIDAZINE-3-CARBOXYLIC ACID (2-CYCLOPROPYLETHYL)AMIDE]
10 | 12 | 20 | O=C(NCCC1CC1)c1ccc(N2CCN(Cc3ccc(F)cc3C(F)(F)F)CC2)nn1 [6-[4-(4-FLUORO-2-TRIFLUOROMETHYLBENZYL)-PIPERAZIN-1-YL]PYRIDAZINE-3-CARBOXYLIC ACID (2-CYCLOPROPYLETHYL)AMIDE]
5520 | 49 | 8690 | O=C(NCC1CC1)c1ccc(N2CCN(C(=O)c3ccccc3C(F)(F)F)CC2)nn1 [6-[4-(2-TRIFLUOROMETHYLBENZOYL)PIPERAZIN-1-YL]PYRIDAZINE-3-CARBOXYLIC ACID CYCLOPROPYLMETHYLAMIDE]
– | 12 | 90 | O=C(NCCC1CC1)c1ccc(N2CCN(C(=O)c3cc(Cl)ccc3C(F)(F)F)CC2)nn1 [6-[4-(5-CHLORO-2-TRIFLUOROMETHYLBENZOYL)PIPERAZIN-1-YL]PYRIDAZINE-3-CARBOXYLIC ACID (2-CYCLOPROPYLETHYL)AMIDE]
2530 | 11 | – | CC(C)CCNC(=O)c1ccc(N2CCN(C(=O)CC(C)C(F)(F)F)CC2)nn1 (stereo not drawn) [6-[4-(4,4,4-TRIFLUORO-3-METHYLBUTYRYL)PIPERAZIN-1-YL]PYRIDAZINE-3-CARBOXYLIC ACID (3-METHYLBUTYL)AMIDE]
– | 46 | – | CC(=O)Oc1ccccc1C(=O)N1CCN(c2ccc(C(=O)NCCC3CC3)nn2)CC1 [ACETIC ACID 2-{4-[6-(2-CYCLOPROPYLETHYLCARBAMOYL)PYRIDAZIN-3-YL]-PIPERAZINE-1-CARBONYL}PHENYL ESTER]
